Test results from US20220023294A1, “SYNTHETIC LETHALITY AND THE TREATMENT OF CANCER” (PACYLEX PHARMACEUTICALS INC., priority 2011, published 2022).

How the values were obtained:
[1] = tested on: B cell lymphomas and T cell leukemias; experiment: Cell viability assay (trypan blue exclusion) after incubation with NMT inhibitors; assay type: cell-based, human; conditions: 24 h, increasing concentration, control adjusted to 100%
Procedure: Tris dibutylbenzinylidene acetone paladium (TrisDBA) was a kind gift of Dr. Arbiser. Cells were incubated at increasing concentrations for 24 hours with TrisDBA (or DMSO for control) or for 24 and 48 hours with DDD85646.
(§1) B and T cell viability was measured using the trypan blue exclusion method. Cells were grown in confluency conditions (2×10^6 cells/mL maximum) assuring the minimum basal apoptosis. After incubation with NMT inhibitors, about 20 000 cells (10 μL) were incubated with 10 μL of TC10™ Trypan Blue Dye (Biorad) for 15 min. Cell viability was quantified using the TC10™ automated cell counter (Biorad).
FIG. 2 depicts the sensitivity of various B cell lymphomas and T cell leukemias to the NMT inhibitors tris-dibenzylideneacetone-dipalladium (Tris-DBA). Various B and T cells were incubated for 24 h with increasing concentration of Tris DBA. Cell viability was measured using trypan blue exclusion method and adjusted to 100% for control.

[2] = biological target: T1, NMT2 (Homo sapiens, UniProt O60551); experiment: In vitro NMT activity (peptide myristoylation) assay with purified recombinant enzyme; assay type: biochemical; conditions: purified recombinant NMT2, radiolabeled myristoyl peptide on phosphocellulose paper
T1 construct: His (N); made in house
T1 sequence (O60551 1-498): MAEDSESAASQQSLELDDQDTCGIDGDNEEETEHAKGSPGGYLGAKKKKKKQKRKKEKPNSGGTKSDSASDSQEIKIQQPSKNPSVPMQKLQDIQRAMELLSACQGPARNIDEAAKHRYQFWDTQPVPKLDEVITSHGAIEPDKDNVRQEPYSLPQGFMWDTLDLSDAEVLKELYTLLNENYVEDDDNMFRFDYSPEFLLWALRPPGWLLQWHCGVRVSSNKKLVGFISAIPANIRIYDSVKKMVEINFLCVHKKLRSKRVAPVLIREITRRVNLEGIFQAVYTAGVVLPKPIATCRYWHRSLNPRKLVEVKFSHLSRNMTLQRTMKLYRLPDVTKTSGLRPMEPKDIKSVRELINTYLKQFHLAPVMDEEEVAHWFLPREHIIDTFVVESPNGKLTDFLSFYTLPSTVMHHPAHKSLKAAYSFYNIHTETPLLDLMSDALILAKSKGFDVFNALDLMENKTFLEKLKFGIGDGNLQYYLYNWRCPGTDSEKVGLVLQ
Source text: (§2) N-myristoyltransferase activity assay protocol was adapted from Raju, R. V., and Sharma, R. K. (1999) Preparation and assay of myristoyl-CoA:protein N-myristoyltransferase. Methods Mol Biol 116, 193-211. [^3H] myristoyl-CoA was freshly synthesized for each experiment, as previously described by Towler, D., and Glaser, L. (1986) Protein fatty acid acylation: enzymatic synthesis of an N-myristoylglycyl peptide. Proc Nal Acad Sci USA 83, 2812-2816. Briefly, cells were resuspended in 0.25 M sucrose buffer (50 mM NaH2PO4, pH 7.4) and subjected to 2 rounds of sonication at level 6.0 on a Branson Sonicator. […] Discs were washed (washing buffer: 25 mM Tris buffer, pH 7.4) to remove the residual radioactivity ([^3H]-myristate and [^3H]-myristoyl-CoA) while [^3H]-myristoyl-peptide is retained on the phosphocellulose paper. Radioactivity was quantified by liquid scintillation counting and converted into pMol of myristoylated peptide (Raju, R. V., and Sharna, R. K. (1999) Preparation and assay of myristoyl-CoA:protein N-myristoyltransferase. Methods Mol Biol 116, 193-211
(§3) NMT activity was assayed using a peptide myristoylation assay with purified recombinant NMT1 and NMT2. NMT activity was calculated from the amount of radiolabeled myristoyl peptide produced and detected on phosphocellulose paper (adapted from King et al. 1991, Anal Biochem.).

[3] = biological target: T2, NMT1 (Homo sapiens, UniProt P30419); experiment: as above; assay type: biochemical; conditions: purified recombinant NMT1, radiolabeled myristoyl peptide on phosphocellulose paper
T2 construct: His (N); made in house
T2 sequence (P30419 1-496): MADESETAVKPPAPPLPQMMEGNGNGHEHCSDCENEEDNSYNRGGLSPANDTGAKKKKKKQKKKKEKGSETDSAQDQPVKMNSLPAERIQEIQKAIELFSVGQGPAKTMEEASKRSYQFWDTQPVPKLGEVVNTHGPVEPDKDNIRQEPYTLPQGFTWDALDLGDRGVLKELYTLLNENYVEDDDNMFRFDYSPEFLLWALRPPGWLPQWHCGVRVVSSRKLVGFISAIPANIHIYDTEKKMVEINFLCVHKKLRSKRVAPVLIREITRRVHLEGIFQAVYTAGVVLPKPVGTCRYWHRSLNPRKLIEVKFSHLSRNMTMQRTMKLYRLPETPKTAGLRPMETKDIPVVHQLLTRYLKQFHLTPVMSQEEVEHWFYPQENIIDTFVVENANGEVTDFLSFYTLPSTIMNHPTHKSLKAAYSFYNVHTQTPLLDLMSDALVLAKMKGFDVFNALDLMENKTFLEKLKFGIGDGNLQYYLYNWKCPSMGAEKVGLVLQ
Source text: as §2, §3

[4] = tested on: Ramos B lymphoma cells; experiment: Survival of Ramos cells transfected with pcDNA3.1-V5-NMT2 in the presence of TrisDBA (trypan blue exclusion); assay type: cell-based, human; conditions: TrisDBA 5 ug/ml, 24 hours
Procedure: B cells were transfected using the Neon® transfection system (Life technologies) following manufacturer's instructions and optimized protocol for Ramos B cells transfection (pulse voltage 1,300V; pulse width 20 ms, 2 pulses and 7.7.10^6 cells/mL) adapted for 100 μL tips. Classically, two transfections were pulled to obtained enough living cells to perform a viability assay.
as §1
In this example, transfection of Ramos B lymphoma cells (which, as shown herein, expresses NMT1) with pcDNA3.1-V5-NMT2 increased survival to TrisDBA (5 ug/ml) 2.5 fold vs control cells transfected with empty plasmid vector. In FIG. 6, 20×10^6 Ramos B lymphoma cells were transfected with 32 μg of DNA (pcDNA3.1-V5-empty or pcDNA3.1-V5-NMT2) using the Neon Transfection System (Invitrogen) following the recommended protocol for Ramos cell line (1,350 Volt, 30 ms). […] After a PBS wash, cells were resuspended and grown in RPMI containing TrisDBA (5 ug/ml) for 24 hours then counted using the trypan blue exclusion method (Panel A). […]

Substance: tris-dibenzylideneacetone-dipalladium [Tris-DBA]
- Cell survival curves (sensitivity of B cell lymphomas versus other cells) [1]: more sensitive
- Inhibition of NMT activity [2]: inhibits NMT in vitro
- Inhibition of NMT activity [3]: inhibits NMT in vitro
- Increased survival of NMT2-transfected cells vs control cells transfected with empty plasmid vector [4]: 2.5 fold
